Data from the supplement of paper PMC10331698.
± gives the standard deviation of the averaged measurements.

How the values were obtained:
Assay in all cases: level (log10 ratio to DMSO vehicle control); higher = higher biomarker level / cell amount than vehicle control
[1] = compound: CCN(CCO)S(=O)(=O)C(F)(F)C(F)(F)C(F)(F)C(F)(F)C(F)(F)C(F)(F)C(F)(F)C(F)(F)F [N-Ethyl-N-(2-hydroxyethyl)perfluorooctanesulfonamide]; conditions: in DMSO
Procedure: (§1)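 BioMAP Diversity Plus panel of 12 human primary cell co-culture systems (3C, 4H, LPS, SAg, BT, BF4T, BE3C, CASM3C, HDF3CGF, KF3CT, MyoF, Mphg). Compounds were added 1 h before stimulation and left for 24 h (MyoF 48 h; BT 72 h for soluble read-outs or 6 d for IgG). Biomarkers were read by ELISA, cytotoxicity by SRB, PBMC viability and proliferation by Alamar Blue. Each well value was divided by the mean of 8 DMSO control wells on the same plate and log10 transformed; duplicate blinded samples were tested at 4 concentrations.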

[2] = compound: O=C(O)C(F)(F)OC(F)(F)C(F)(F)OC(F)(F)C(=O)O [Perfluoro-3,6-dioxaoctane-1,8-dioic acid]; conditions: in DMSO
Procedure: as §1

Perfluorobutanoic acid = compound: O=C(O)C(F)(F)C(F)(F)C(F)(F)F [Perfluorobutanoic acid]; conditions: in DMSO
Procedure: as §1

Perfluoro-1-iodohexane = compound: FC(F)(F)C(F)(F)C(F)(F)C(F)(F)C(F)(F)C(F)(F)I [Perfluoro-1-iodohexane]; conditions: in DMSO
Procedure: as §1

[3] = compound: OCCCC(F)(F)C(F)(F)C(F)(F)C(F)(F)C(F)(F)C(F)(F)C(F)(F)F [7:3 Fluorotelomer alcohol]; conditions: 6700 nM; in DMSO
Procedure: as §1

[4] = compound: FC(F)(F)C(F)(F)C(F)(F)C(F)(F)C(F)(F)CCI [1-Iodo-1H,1H,2H,2H-perfluoroheptane]; conditions: in DMSO
Procedure: as §1

Perfluoroheptanoic acid = compound: O=C(O)C(F)(F)C(F)(F)C(F)(F)C(F)(F)C(F)(F)C(F)(F)F [Perfluoroheptanoic acid]; conditions: in DMSO
Procedure: as §1

| Test System | level (log10) ([1]; 6700 nM) | level (log10) ([1]; 20000 nM) | level (log10) ([2]; 6700 nM) | level (log10) ([2]; 20000 nM) | level (log10) ([2]; 60000 nM) | level (log10) (Perfluorobutanoic acid; 6700 nM) | level (log10) (Perfluorobutanoic acid; 20000 nM) | level (log10) (Perfluorobutanoic acid; 60000 nM) | level (log10) (Perfluoro-1-iodohexane; 6700 nM) | level (log10) (Perfluoro-1-iodohexane; 20000 nM) | level (log10) (Perfluoro-1-iodohexane; 60000 nM) | level (log10) [3] | level (log10) ([4]; 6700 nM) | level (log10) ([4]; 20000 nM) | level (log10) ([4]; 60000 nM) | level (log10) (Perfluoroheptanoic acid; 6700 nM) | level (log10) (Perfluoroheptanoic acid; 20000 nM) | level (log10) (Perfluoroheptanoic acid; 60000 nM) |
| --- | --- | --- | --- | --- | --- | --- | --- | --- | --- | --- | --- | --- | --- | --- | --- | --- | --- | --- |
| LPS:CD62E/E-Selectin | 0.071 ± 0.02 | 0.073 ± 0.0042 | 0.019 ± 0.013 | -0.0035 ± 0.0092 | -0.003 ± 0.0028 | -0.012 ± 0.018 | -0.01 ± 0.013 | -0.0085 ± 0.005 | -0.0115 ± 0.0035 | -0.0175 ± 0.011 | 0.015 ± 0.023 | -0.0125 ± 0.016 | 0.0045 ± 0.012 | 0.004 ± 0.0042 | -0.0005 ± 0.0064 | -0.009 ± 0.0028 | 0 ± 0.017 | 0.01 |
| SAg:Proliferation | -0.098 ± 0.0057 | -0.335 ± 0.098 | -0.017 ± 0.05 | -0.011 ± 0.035 | -0.0085 ± 0.021 | -0.04 ± 0.0099 | 0.0325 ± 0.029 | -0.0065 ± 0.039 | -0.031 ± 0.044 | -0.055 ± 0.02 | -0.0395 ± 0.04 | -0.0205 ± 0.052 | -0.014 ± 0.035 | -0.0145 ± 0.0064 | -0.15 ± 0.054 | 0.0045 ± 0.032 | 0.0275 ± 0.035 | 0.028 ± 0.034 |
| BT:sIL-2 | -0.046 ± 0.03 | -0.339 ± 0.076 | 0.004 ± 0.027 | -0.017 ± 0.05 | -0.002 ± 0.041 | -0.011 ± 0.0028 | 0.0285 ± 0.066 | 0.0095 ± 0.042 | 0.0065 ± 0.052 | -0.0005 ± 0.1 | -0.0005 ± 0.098 | -0.037 ± 0.15 | -0.068 ± 0.0042 | 0.027 ± 0.047 | -0.15 ± 0.073 | -0.0105 ± 0.14 | 0.0035 ± 0.037 | -0.008 ± 0.075 |
| BF4T:CD90 | -0.013 ± 0.0099 | -0.0145 ± 0.005 | -0.012 ± 0.0028 | -0.0085 ± 0.005 | -0.004 ± 0.0028 | -0.001 ± 0.0028 | -0.0055 ± 0.00071 | -0.0075 ± 0.0078 | -0.0085 ± 0.0035 | -0.002 ± 0.018 | -0.002 ± 0.011 | -0.004 ± 0.0028 | 0.0025 ± 0.00071 | -0.001 ± 0.0028 | 0.013 ± 0.0028 | -0.01 ± 0.0042 | -0.001 ± 0.0014 | -0.0005 ± 0.0021 |
| 3C:Proliferation | -0.267 ± 0.087 | -0.947 ± 0.17 | 0.002 ± 0.0028 | -0.038 ± 0.044 | -0.033 ± 0.014 | -0.0225 ± 0.084 | -0.02 ± 0.061 | 0.024 ± 0.042 | -0.0215 ± 0.0064 | -0.0205 ± 0.013 | -0.041 ± 0.041 | -0.093 ± 0.095 | 0.001 ± 0.027 | -0.0465 ± 0.03 | -0.163 ± 0.052 | -0.0365 ± 0.028 | 0.0245 ± 0.057 | -0.109 ± 0.057 |
| BT:sTNF-alpha | -0.031 ± 0.082 | -0.312 ± 0.1 | -0.0245 ± 0.043 | -0.139 ± 0.035 | -0.019 ± 0.2 | 0.019 ± 0.093 | 0.0875 ± 0.069 | 0.0305 ± 0.023 | 0.009 ± 0.031 | -0.0095 ± 0.14 | -0.0015 ± 0.16 | 0.009 ± 0.028 | -0.02 ± 0.038 | 0.063 ± 0.055 | -0.114 ± 0.052 | -0.0045 ± 0.11 | -0.0405 ± 0.05 | -0.064 ± 0.17 |
| BF4T:CCL2/MCP-1 | -0.004 ± 0.013 | -0.022 ± 0.0028 | 0.018 ± 0.027 | 0.0135 ± 0.053 | 0.0265 ± 0.043 | 0.004 ± 0.038 | 0.017 ± 0.0057 | 0.006 ± 0.0071 | -0.002 ± 0.025 | -0.024 ± 0.025 | -0.0315 ± 0.028 | -0.0115 ± 0.019 | -0.008 ± 0.025 | -0.044 ± 0.044 | -0.055 ± 0.02 | 0.0155 ± 0.056 | 0.019 ± 0.067 | 0.0365 ± 0.12 |
| BT:PBMC Cytotoxicity | -0.003 ± 0.027 | -0.0615 ± 0.0035 | -0.018 ± 0.057 | -0.0495 ± 0.0064 | -0.0125 ± 0.012 | 0.003 ± 0.011 | 0.0255 ± 0.018 | -0.0175 ± 0.00071 | 0.042 ± 0.014 | -0.0045 ± 0.022 | 0.0285 ± 0.0035 | 0.0245 ± 0.035 | -0.012 ± 0.03 | -0.0265 ± 0.028 | -0.024 ± 0.011 | -0.0175 ± 0.0064 | 0.001 ± 0.0057 | 0.063 ± 0.0014 |
